From PubChem BioAssay (NCI)
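Tested at 5 concentrations; 48 h exposure; 96-well plates; endpoints linearly interpolated, else capped at highest concentration. The concentration for 50% growth inhibition is given as GI50. TGI is the concentration that stops growth completely.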

What was measured:
Assay in all cases: NCI anticancer screen, dose series, 48 h
786-0 renal = test system: 786-0 renal
A498 renal = test system: A498 renal
A549 NSCLC = test system: A549 NSCLC
ACHN renal = test system: ACHN renal
BT-549 breast = test system: BT-549 breast
CAKI-1 renal = test system: CAKI-1 renal
CCRF-CEM leukemia = test system: CCRF-CEM leukemia
COLO 205 colon = test system: COLO 205 colon
DU-145 prostate = test system: DU-145 prostate
EKVX NSCLC = test system: EKVX NSCLC
HCC-2998 colon = test system: HCC-2998 colon
HCT-116 colon = test system: HCT-116 colon
HCT-15 colon = test system: HCT-15 colon
HL-60(TB) leukemia = test system: HL-60(TB) leukemia
HOP-62 NSCLC = test system: HOP-62 NSCLC
HOP-92 NSCLC = test system: HOP-92 NSCLC
HS 578T breast = test system: HS 578T breast
HT29 colon = test system: HT29 colon
IGROV1 ovarian = test system: IGROV1 ovarian
K-562 leukemia = test system: K-562 leukemia
KM12 colon = test system: KM12 colon
LOX IMVI melanoma = test system: LOX IMVI melanoma
M14 melanoma = test system: M14 melanoma
MALME-3M melanoma = test system: MALME-3M melanoma
MCF7 breast = test system: MCF7 breast
MDA-MB-231 breast = test system: MDA-MB-231 breast
MDA-MB-435 = test system: MDA-MB-435
MOLT-4 leukemia = test system: MOLT-4 leukemia
NCI-H226 lung = test system: NCI-H226 lung
NCI-H23 lung = test system: NCI-H23 lung
NCI-H460 lung = test system: NCI-H460 lung
NCI-H522 lung = test system: NCI-H522 lung
NCI/ADR-RES ovarian = test system: NCI/ADR-RES ovarian
OVCAR-3 ovarian = test system: OVCAR-3 ovarian
OVCAR-4 ovarian = test system: OVCAR-4 ovarian
OVCAR-5 ovarian = test system: OVCAR-5 ovarian
OVCAR-8 ovarian = test system: OVCAR-8 ovarian
PC-3 prostate = test system: PC-3 prostate
RPMI-8226 leukemia = test system: RPMI-8226 leukemia
SF-268 CNS = test system: SF-268 CNS
SF-295 CNS = test system: SF-295 CNS
SF-539 CNS = test system: SF-539 CNS
SK-MEL-2 melanoma = test system: SK-MEL-2 melanoma
SK-MEL-28 melanoma = test system: SK-MEL-28 melanoma
SK-MEL-5 melanoma = test system: SK-MEL-5 melanoma
SK-OV-3 ovarian = test system: SK-OV-3 ovarian
SN12C renal = test system: SN12C renal
SNB-19 CNS = test system: SNB-19 CNS
SNB-75 CNS = test system: SNB-75 CNS
SR leukemia = test system: SR leukemia
SW-620 colon = test system: SW-620 colon
TK-10 renal = test system: TK-10 renal
U251 CNS = test system: U251 CNS
UACC-257 melanoma = test system: UACC-257 melanoma
UACC-62 melanoma = test system: UACC-62 melanoma
UO-31 renal = test system: UO-31 renal

CCN1C(=O)N(CC)C2SC(N/N=C/c3ccc(F)cc3)=NC21 (centres undefined)
GI50 (786-0 renal): 0.628 µM | TGI (786-0 renal): 30.1 µM | GI50 (A498 renal): 0.295 µM | TGI (A498 renal): 0.86 µM | GI50 (A549 NSCLC): 0.611 µM | TGI (A549 NSCLC): > 100 µM | GI50 (ACHN renal): 0.728 µM | TGI (ACHN renal): > 100 µM | GI50 (BT-549 breast): 0.496 µM | TGI (BT-549 breast): 2.87 µM | GI50 (CAKI-1 renal): 0.435 µM | TGI (CAKI-1 renal): > 100 µM | GI50 (CCRF-CEM leukemia): 0.413 µM | TGI (CCRF-CEM leukemia): > 100 µM | GI50 (COLO 205 colon): 0.308 µM | TGI (COLO 205 colon): 1.1 µM | GI50 (DU-145 prostate): 0.498 µM | TGI (DU-145 prostate): > 100 µM | GI50 (EKVX NSCLC): 0.695 µM | TGI (EKVX NSCLC): > 100 µM | GI50 (HCC-2998 colon): 0.823 µM | TGI (HCC-2998 colon): > 100 µM | GI50 (HCT-116 colon): 0.404 µM | TGI (HCT-116 colon): > 33.9 µM | GI50 (HCT-15 colon): 0.429 µM | TGI (HCT-15 colon): > 100 µM | GI50 (HL-60(TB) leukemia): 0.268 µM | TGI (HL-60(TB) leukemia): 0.927 µM | GI50 (HOP-62 NSCLC): 0.556 µM | TGI (HOP-62 NSCLC): > 100 µM | GI50 (HOP-92 NSCLC): 1.16 µM | TGI (HOP-92 NSCLC): > 23.3 µM | GI50 (HS 578T breast): 0.363 µM | GI50 (HT29 colon): 0.354 µM | TGI (HT29 colon): 4.46 µM | GI50 (IGROV1 ovarian): 0.765 µM | TGI (IGROV1 ovarian): > 100 µM | GI50 (K-562 leukemia): 0.361 µM | TGI (K-562 leukemia): > 100 µM | GI50 (KM12 colon): 0.415 µM | TGI (KM12 colon): > 62.2 µM | GI50 (LOX IMVI melanoma): 0.596 µM | TGI (LOX IMVI melanoma): > 100 µM | GI50 (M14 melanoma): 0.296 µM | TGI (M14 melanoma): 14.4 µM | GI50 (MALME-3M melanoma): 0.66 µM | TGI (MALME-3M melanoma): > 100 µM | GI50 (MCF7 breast): 0.369 µM | TGI (MCF7 breast): > 100 µM | GI50 (MDA-MB-231 breast): 0.955 µM | TGI (MDA-MB-231 breast): > 100 µM | GI50 (MDA-MB-435): 0.174 µM | TGI (MDA-MB-435): 0.408 µM | GI50 (MOLT-4 leukemia): 0.479 µM | TGI (MOLT-4 leukemia): > 100 µM | GI50 (NCI-H226 lung): 0.942 µM | TGI (NCI-H226 lung): > 100 µM | GI50 (NCI-H23 lung): 0.539 µM | TGI (NCI-H23 lung): > 100 µM | GI50 (NCI-H460 lung): 0.362 µM | GI50 (NCI-H522 lung): 0.25 µM | TGI (NCI-H522 lung): 0.762 µM | GI50 (NCI/ADR-RES ovarian): 0.428 µM | TGI (NCI/ADR-RES ovarian): > 100 µM | GI50 (OVCAR-3 ovarian): 0.37 µM | TGI (OVCAR-3 ovarian): 2.04 µM | GI50 (OVCAR-4 ovarian): 22.4 µM | TGI (OVCAR-4 ovarian): > 100 µM | GI50 (OVCAR-5 ovarian): 0.89 µM | TGI (OVCAR-5 ovarian): > 100 µM | GI50 (OVCAR-8 ovarian): 0.495 µM | TGI (OVCAR-8 ovarian): > 24 µM | GI50 (PC-3 prostate): 0.436 µM | TGI (PC-3 prostate): > 52.3 µM | GI50 (RPMI-8226 leukemia): 0.373 µM | TGI (RPMI-8226 leukemia): > 100 µM | GI50 (SF-268 CNS): 2.62 µM | TGI (SF-268 CNS): > 100 µM | GI50 (SF-295 CNS): 0.348 µM | TGI (SF-295 CNS): > 100 µM | GI50 (SF-539 CNS): 0.321 µM | TGI (SF-539 CNS): 1.43 µM | GI50 (SK-MEL-2 melanoma): 0.507 µM | TGI (SK-MEL-2 melanoma): > 100 µM | GI50 (SK-MEL-28 melanoma): > 30 µM | TGI (SK-MEL-28 melanoma): > 100 µM | GI50 (SK-MEL-5 melanoma): 0.601 µM | TGI (SK-MEL-5 melanoma): > 42.2 µM | GI50 (SK-OV-3 ovarian): 0.662 µM | TGI (SK-OV-3 ovarian): > 100 µM | GI50 (SN12C renal): 0.617 µM | TGI (SN12C renal): > 100 µM | GI50 (SNB-19 CNS): 0.504 µM | TGI (SNB-19 CNS): > 100 µM | GI50 (SNB-75 CNS): 0.252 µM | GI50 (SR leukemia): 0.221 µM | TGI (SR leukemia): > 100 µM | GI50 (SW-620 colon): 0.374 µM | TGI (SW-620 colon): > 100 µM | GI50 (TK-10 renal): 5.2 µM | TGI (TK-10 renal): > 100 µM | GI50 (U251 CNS): 0.406 µM | TGI (U251 CNS): > 74.3 µM | GI50 (UACC-257 melanoma): 1.26 µM | TGI (UACC-257 melanoma): > 100 µM | GI50 (UACC-62 melanoma): 0.437 µM | TGI (UACC-62 melanoma): > 100 µM | GI50 (UO-31 renal): 0.631 µM | TGI (UO-31 renal): > 100 µM
